# What was measured:
# [1] = cited from earlier work
# Excerpt: Staphylococci species are the predominant causative organisms in neonatal ventriculitis ([Adams-Chapman et al., 2008]; [Parasuraman et al., 2018]). […] A more recent work by Li et al highlighted that the disturbance of the blood brain barrier was important in transfer of IV vancomycin into the ...
# [2] = system: preterm infants with neonatal ventriculitis; assay: Time to CSF sterilisation versus model-predicted CSF AUC(0-24) and C average; type: in vivo; conditions: observed trend, 8 preterm infants; paper says the data is too erratic to interpret
# Excerpt: Time to sterilisation was defined as length of time taken for CSF WCC to fall to < 20/mm^3 and simultaneously achieve sterile CSF.
# Area under the curve (AUC) predictions were generated for CSF vancomycin from the final model. We explored the relationships between AUC 0-24 and average CSF concentration (C average; defined as AUC(0-t)/t; t = time) and time to sterilisation of CSF.
# [3] = cited from earlier work; remark: listed apart in the source
# [4] = cited from earlier work; remark: listed apart in the source
# Excerpt: Staphylococci species are the predominant causative organisms in neonatal ventriculitis ([Adams-Chapman et al., 2008]; [Parasuraman et al., 2018]).
# [5] = with CSF vancomycin level ranging from 2.5-230.7 mg/L, preterm infants; ref Parasuraman et al., 2018; cited from earlier work
# Protocol: We have previously examined the relationship of 4 different intraventricular vancomycin doses, between 3mg to 15mg, and the CSF vancomycin concentrations, in a small cohort of preterm infants of < 28 weeks gestation ([Parasuraman et al., 2018]). In the four different dose models, the CSF vancomycin levels were adequately maintained at a level of at least ten times above the breakpoint of MIC (>10 mg/L) for coagulase-negative staphylococci (CoNS) ([Parasuraman et al., 2018]).
# [6] = Observed plasma and CSF vancomycin levels (QMS immunoassay); type: in vivo, preterm infants; conditions: median (range)
# Excerpt: CSF WCC, microbiological CSF culture results, CSF protein levels, IV vancomycin and intraventricular vancomycin doses administered, all available CSF vancomycin levels and serum vancomycin levels, dates and times of IV vancomycin doses, intraventricular vancomycin doses, serum and CSF vancomycin levels.
# CSF samples for vancomycin levels were taken when the ventricular access device was accessed for routine CSF drainage, as needed for clinical management of hydrocephalus, for the individual baby. Due to this routine practice, the CSF vancomycin levels were taken at random time points. Repeat intraventricular vancomycin dose was administered if the level dropped under the threshold of 10mg/L. The target CSF vancomycin concentration was at least ten times above the breakpoint of MIC for CoNS. This was chosen as these were the principal infecting organisms in the defined neonatal cohort and the study hospital's MIC breakpoint for CoNS is 1 mg/L (EUCAST MIC breakpoint, 4 mg/L) ([EUCAST, 2017]).
# The CSF vancomycin measurements were undertaken in the local microbiology laboratory, which is a national referral centre for antibiotic assays, through quantitative microsphere system (QMS® Thermo Scientific)-based immunoassay ([Thermo Scientific. QMS ® Vancomycin (VANCO), 2015]). […]
# [7] = system: Staphylococcal epidermidis; conditions: adult CSF samples, MIC 2mg/L; ref Nagl et al., 1999; cited from earlier work
# Protocol: (§1) Staphylococci species are the predominant causative organisms in neonatal ventriculitis ([Adams-Chapman et al., 2008]; [Parasuraman et al., 2018]). […] However, IV vancomycin is only able to achieve CSF vancomycin concentrations of 1.1-6mg/L, across the adult and the neonatal population ([Li et al., 2015]; [Beach et a ...
# Staphylococcus aureus = conditions: adult CSF samples, MIC 2mg/L; ref Nagl et al., 1999; cited from earlier work
# Protocol: as §1
# [8] = ref Schilling et al., 2011; cited from earlier work
# Excerpt: The CSF protein was examined as a covariate in this study as 50-55% of vancomycin is protein bound ([Schilling et al., 2011]). As the CSF protein in a preterm baby is higher than that of a term infant, we hypothesised that this may have an effect on the unbound vancomycin in the CSF ([Majumdar et al., 2013]; [De Cock et al., 2017]). However, no significant association was found between VI, CSF protein and CSF vancomycin levels. This is an important finding in the preterm population, to review current intraventricular vancomycin prescribing parameters and practice.
# [9] = Population pharmacokinetic (NLME) model of plasma vancomycin after IV dosing
# [10] = Population pharmacokinetic (NLME) model of CSF vancomycin after intraventricular dosing
# Protocol: Intraventricular vancomycin was given when the ventricular access device was accessed for the routine drainage. Intraventricular vancomycin concentration used was 10 mg/mL, in a sterile preparation, and was given as a slow bolus over 2 minutes. The intraventricular vancomycin was given at the end of the CSF drainage. The ventricular access device was flushed with 1ml of sterile NaCl 0.9% following instillation of the intraventricular vancomycin.
# Using a one-compartment modelling approach, CSF compartment was added to the plasma modelling. The CSF model equation, with the incorporated plasma model is given below: dA(p)/dt=−clp/vp×A(p)dA(csf)/dt=−clcsf/vcsf×A(csf) Where p is plasma, cl is clearance, v is volume, A is amount, csf is cerebrospinal fluid, dA(p)/dt is change in plasma concentrations with time and dA(csf)/dt is change in cerebrospinal fluid concentrations with time.
# In the first instance, parallel dosing was used, and no transfer was assumed between plasma and CSF. Mass transfer in both directions (plasma to CSF; CSF to plasma) was tested using first-order rate constants. We tested 2 covariates of VI and CSF protein, on CSF clearance and volume and CSF clearance respectively.
smiles,measurement,setting,value
CN[C@H](CC(C)C)C(=O)N[C@H]1C(=O)N[C@@H](CC(N)=O)C(=O)N[C@H]2C(=O)N[C@H]3C(=O)N[C@H](C(=O)N[C@H](C(=O)O)c4cc(O)cc(O)c4-c4cc3ccc4O)[C@H](O)c3ccc(c(Cl)c3)Oc3cc2cc(c3O[C@@H]2O[C@H](CO)[C@@H](O)[C@H](O)[C@H]2O[C@H]2C[C@](C)(N)[C@H](O)[C@H](C)O2)Oc2ccc(cc2Cl)[C@H]1O [vancomycin],CSF concentrations achieved,"[1]; IV vancomycin regimes 2g-3.5g/day, 6 adult patients with ventriculitis, ref Beach et al., 2017",1.1 to 6 mg/L
same,mean stable vancomycin concentration in the CSF,"[1]; IV vancomycin, ref Li et al., 2015",2 mg/L
same,CSF vancomycin concentrations achieved by IV vancomycin,"[1]; across the adult and the neonatal population, ref Li et al., 2015, Beach et al., 2017, Reiter and Doron, 1996",1.1 to 6 mg/L
same,time to CSF sterilisation versus CSF AUC (0-24) and C average,[2],shorter time to sterilisation with higher AUC (0-24) and C average
same,serum vancomycin concentration after intraventricular vancomycin administration,"[3]; 10mg intraventricular, ref Pfausler et al., 2003",below measurable concentration
same,vancomycin transferred from CSF into plasma,"[3]; attributed to the larger volume of plasma compared to CSF, ref Li et al., 2017",inconsequential
same,CSF vancomycin levels at 72 hours post administration,"[4]; 5mg intraventricular vancomycin starting dose, neonatal ventriculitis, ref Matsunaga et al., 2015",16.5 mg/L
same,CSF vancomycin levels maintained,"[4]; four intraventricular dose models 3mg to 15mg, preterm infants < 28 weeks gestation, at least ten times above the MIC breakpoint for CoNS, ref Parasuraman et al., 2018",> 10 mg/L
same,CSF vancomycin level range,"[4]; intraventricular vancomycin, preterm infants < 28 weeks gestation, ref Parasuraman et al., 2018",2.5 to 230.7 mg/L
same,"complications, specifically renal effects and ototoxicity",[5],no confirmed complications
same,CSF concentrations,"[6]; 8 preterm infants, intraventricular starting doses 3, 5, 10, 15 mg, CSF time after dose 7.39 (0.02-57.37) h, QMS immunoassay",24.9 (2.5-230.7) mg/L
same,plasma concentrations,"[6]; preterm infants on concomitant IV vancomycin 15 mg/kg starting dose, plasma time after dose 5.59 (0-14) h",8.6 (2.2-26.6) mg/L
same,concentration of maximum microbiocidal effect,[7],5 to 10 mg/L
same,concentration of maximum microbiocidal effect,Staphylococcus aureus,5 to 10 mg/L
same,protein bound,[8],50-55%
same,"CL, Estimate (%RSE)","[9]; plasma clearance, final one-compartment model, allometrically scaled to 70 kg, 37 plasma samples from 5 preterm infants on IV vancomycin, value (%RSE)",9.29(5.2) L/h/70 kg
same,"CL, Bootstrap median (95% CI)","[9]; plasma clearance, non-parametric bootstrap of 1000 samples",9.5 (8.7 – 10.9) L/h/70 kg
same,"V, Estimate (%RSE)","[9]; plasma volume of distribution, final one-compartment model, scaled to 70 kg, value (%RSE)",54.4(11.5) L/70 kg
same,"V, Bootstrap median (95% CI)","[9]; plasma volume of distribution, non-parametric bootstrap of 1000 samples",53.5 (47.6 – 119.8) L/70 kg
same,"CLCSF, Estimate (%RSE)","[10]; CSF clearance, final model, intraventricular vancomycin, 67 CSF samples from 8 preterm infants, value (%RSE)",0.002(12.9) L/h
same,"CLCSF, Bootstrap median (95% CI)","[10]; CSF clearance, non-parametric bootstrap of 1000 samples",0.002 (0.002 - 0.003) L/h
same,"VCSF, Estimate (%RSE)","[10]; CSF volume of distribution, final model, intraventricular vancomycin, value (%RSE)",0.109(23.8) L
same,"VCSF, Bootstrap median (95% CI)","[10]; CSF volume of distribution, non-parametric bootstrap of 1000 samples",0.11 (0.069 - 0.172) L
same,transfer between plasma and CSF,"[10]; first-order transfer rate constants tested in both directions in the model, no significant improvement in fit",did not demonstrate an appreciable transfer between plasma and CSF
